Tests used:
BTK(C481S) = BTK(C481S) (Homo sapiens (Human), UniProt Q06187, C481S); assay: In vitro inhibitory activity against BTK(C481S) enzyme (33P-ATP filter binding); format: biochemical; conditions: class symbols; read-out: IC50 BTK(C48IS)
Method: (§1) The substrate solution was prepared by adding the substrate poly(Glu, Tyr) sodium salt (Sigma Aldrich, St. Louis, Mo.) to the substrate reaction buffer (20 mM Hepes (pH 7.5), 10 mM MgCl2, 1 mM EGTA, 0.02% Brij35, 0.02 mg/mL BSA, 0.1 mM Na3VO4, 2 mM DTT and 1% DMSO) (final substrate concentration in the reaction solution was 0.2 μM). Test compound was formulated into stock solutions at 10 mM concentration with 100% DMSO, and 3-fold serial dilution for 10 doses was performed in a 384-well cyclic olefin copolymer LDV microplate. […] Test compound in 100% DMSO was then added to the kinase reaction mixture by acoustic liquid transfer technology (Echo 550; nanoliter range) (Labcyte Inc, Sunnyvale, Calif.) and incubated for 20 min at room temperature. 33P-ATP (specific activity 10 μCi/μL) was added to the reaction mixture to initiate the reaction, followed by incubation at room temperature for 2 h. A small portion of the reaction mixture was dropped onto P-81 ion exchange filter paper (Whatman). After washing the unbound phosphate from the filter paper with 0.75% phosphate buffer (three times) and drying, the remaining radioactivity on the filter paper was measured. The kinase activity was expressed as the percentage of the remaining kinase activity in the test sample to the kinase activity in the vehicle (dimethyl sulfoxide) blank control. IC50 values were calculated by curve fitting the data obtained using Prism (GraphPad Software).

BTK(wt) = BTK(wt) (Homo sapiens (Human), UniProt Q06187); assay: In vitro inhibitory activity against BTK(wt) enzyme (33P-ATP filter binding); format: biochemical; conditions: class symbols
Method: as §1

Sequence of BTK(wt) (Q06187 whole entry): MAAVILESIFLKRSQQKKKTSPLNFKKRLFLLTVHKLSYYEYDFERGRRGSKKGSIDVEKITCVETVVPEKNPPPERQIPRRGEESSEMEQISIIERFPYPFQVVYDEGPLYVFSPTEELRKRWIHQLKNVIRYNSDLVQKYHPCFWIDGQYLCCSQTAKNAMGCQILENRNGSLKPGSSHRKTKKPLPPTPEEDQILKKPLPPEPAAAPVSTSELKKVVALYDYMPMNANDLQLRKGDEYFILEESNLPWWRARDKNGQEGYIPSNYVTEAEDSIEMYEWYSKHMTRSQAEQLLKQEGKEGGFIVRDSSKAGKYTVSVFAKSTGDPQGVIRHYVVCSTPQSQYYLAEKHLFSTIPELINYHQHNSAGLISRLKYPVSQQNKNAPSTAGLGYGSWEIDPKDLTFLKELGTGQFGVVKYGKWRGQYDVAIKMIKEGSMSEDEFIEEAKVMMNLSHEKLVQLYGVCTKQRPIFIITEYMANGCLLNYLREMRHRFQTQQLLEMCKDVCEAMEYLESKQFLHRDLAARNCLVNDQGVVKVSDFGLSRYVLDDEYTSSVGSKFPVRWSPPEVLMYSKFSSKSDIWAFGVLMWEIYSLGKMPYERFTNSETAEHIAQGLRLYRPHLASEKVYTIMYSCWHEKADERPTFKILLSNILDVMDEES
Sequence of BTK(C481S) (Q06187 whole entry C481S): as the sequence (Q06187 whole entry) above, with C481S counted along it

| Compound | IC50 (BTK(C481S)) | IC50 (BTK(wt)) |
| --- | --- | --- |
| COCCC(=O)NC12CCC(c3nc(-c4ccc(C(=O)Nc5cc(C(F)(F)F)ccn5)cc4)c4c(N)nccn34)(CC1)C2 [Compound A-10-8, 4-(8-amino-3-(4-(3-methoxypropanamido)bicyclo[2.2.1]heptan-1-yl)imidazo[1,5-a]pyrazin-1-yl)-N-(4-(trifluoromethyl)pyridin-2-yl)benzamide] | ≤ 0.1 nM | 1 to 10 nM |
| CC#CC(=O)NC12CCC(c3nc(-c4ccc(C(=O)Nc5cc(F)ccn5)cc4)c4c(N)nccn34)(CC1)C2 [Compound A-7-2, 4-(8-amino-3-(4-(but-2-ynamido)bicyclo[2.2.1]heptan-1-yl)imidazo[1,5-a]pyrazin-1-yl)-N-(4-fluoropyridin-2-yl)benzamide] | 0.1 to 1 nM | 1 to 10 nM |
| COC/C=C/C(=O)NC12CCC(c3nc(-c4ccc(C(=O)Nc5cc(C(F)(F)F)ccn5)cc4)c4c(N)nccn34)(CC1)C2 [Compound A-10-1, (E)-4-(8-amino-3-(4-(4-methoxybut-2-enamido)bicyclo[2.2.1]heptan-1-yl)imidazo[1,5-a]pyrazin-1-yl)-N-(4-(trifluoromethyl)pyridin-2-yl)benzamide] | 0.1 to 1 nM | 1 to 10 nM |
| CC(C)(O)C(=O)NC12CCC(c3nc(-c4ccc(C(=O)Nc5cc(C(F)(F)F)ccn5)cc4)c4c(N)nccn34)(CC1)C2 [Compound A-10-6, 4-(8-amino-3-(4-(2-hydroxy-2-methylpropanamido)bicyclo[2.2.1]heptan-1-yl)imidazo[1,5-a]pyrazin-1-yl)-N-(4-(trifluoromethyl)pyridin-2-yl)benzamide] | ≤ 0.1 nM | 1 to 10 nM |
| Nc1nccn2c(C34CCC(NC(=O)CN5CCOCC5)(CC3)C4)nc(-c3ccc(Oc4ccccc4)cc3)c12 [Compound A-13-4, N-(4-(8-amino-1-(4-phenoxyphenyl)imidazo[1,5-a]pyrazin-3-yl)bicyclo[2.2.1]heptan-1-yl)-2-morpholinoacetamide] | 1 to 10 nM | 10 to 50 nM |
| N#CCC(=O)NC12CCC(c3nc(-c4ccc(C(=O)Nc5cc(C(F)(F)F)ccn5)cc4)c4c(N)nccn34)(CC1)C2 [Compound A-10-13, 4-(8-amino-3-(4-(2-cyanoacetamido)bicyclo[2.2.1]heptan-1-yl)imidazo[1,5-a]pyrazin-1-yl)-N-(4-(trifluoromethyl)pyridin-2-yl)benzamide] | ≤ 0.1 nM | 1 to 10 nM |
| COCCC(=O)NC12CCC(c3nc(-c4ccc(Oc5ccccc5)cc4)c4c(N)nccn34)(CC1)C2 [Compound A-13-2, N-(4-(8-amino-1-(4-phenoxyphenyl)imidazo[1,5-a]pyrazin-3-yl)bicyclo[2.2.1]heptan-1-yl)-3-methoxypropanamide] | 0.1 to 1 nM | 1 to 10 nM |
| Nc1nccn2c(C34CCC(NC(=O)c5ccccc5)(CC3)C4)nc(-c3ccc(C(=O)Nc4cc(C(F)(F)F)ccn4)cc3)c12 [Compound A-10-17, 4-(8-amino-3-(4-benzamidobicyclo[2.2.1]heptan-1-yl)imidazo[1,5-a]pyrazin-1-yl)-N-(4-(trifluoromethyl)pyridin-2-yl)benzamide] | 1 to 10 nM | 10 to 50 nM |
| N#CC1(C(=O)NC23CCC(c4nc(-c5ccc(C(=O)Nc6cc(C(F)(F)F)ccn6)cc5)c5c(N)nccn45)(CC2)C3)CC1 [Compound A-10-12, 4-(8-amino-3-(4-(1-cyanocyclopropanecarboxamido)bicyclo[2.2.1]heptan-1-yl)imidazo[1,5-a]pyrazin-1-yl)-N-(4-(trifluoromethyl)pyridin-2-yl)benzamide] | 0.1 to 1 nM | 1 to 10 nM |
| CC#CC(=O)NC12CCC(c3nc(-c4ccc(C(=O)Nc5cc(C(F)(F)F)ccn5)cc4F)c4c(N)nccn34)(CC1)C2 [Compound A-7-9, 4-(8-amino-3-(4-(but-2-ynamido)bicyclo[2.2.1]heptan-1-yl)imidazo[1,5-a]pyrazin-1-yl)-3-fluoro-N-(4-(trifluoromethyl)pyridin-2-yl)benzamide] | 0.1 to 1 nM | 1 to 10 nM |

The next lines start with the values.

| IC50 (BTK(C481S)) | IC50 (BTK(wt)) | Compound |
| --- | --- | --- |
| 1 to 10 nM | 1 to 10 nM | CC(C)(O)C(=O)NC12CCC(c3nc(-c4ccc(Oc5ccccc5)cc4)c4c(N)nccn34)(CC1)C2 [Compound A-13-1, N-(4-(8-amino-1-(4-phenoxyphenyl)imidazo[1,5-a]pyrazin-3-yl)bicyclo[2.2.1]heptan-1-yl)-2-hydroxy-2-methylpropanamide] |
| 1 to 10 nM | 1 to 10 nM | CC1(C(=O)NC23CCC(n4cc(-c5ccc(C(=O)Nc6cc(C(F)(F)F)ccn6)cc5)c5c(N)ncnc54)(CC2)C3)COC1 [Compound B-6-4, N-(4-(4-amino-5-(4-((4-(trifluoromethyl)pyridin-2-yl)carbamoyl)phenyl)-7H-pyrrolo[2,3-d]pyrimidin-7-yl)bicyclo[2.2.1]heptan-1-yl)-3-methyloxetane-3-carboxamide] |
| 0.1 to 1 nM | 1 to 10 nM | C=CC(=O)NC12CCC(c3nc(-c4ccc(C(=O)Nc5cc(C(F)(F)F)ccn5)cc4)c4c(N)nccn34)(CC1)C2 [Compound A-10-3, 4-(3-(4-acrylamidobicyclo[2.2.1]heptan-1-yl)-8-aminoimidazo[1,5-a]pyrazin-1-yl)-N-(4-(trifluoromethyl)pyridin-2-yl)benzamide] |
| 1 to 10 nM | 10 to 50 nM | CC(C)(O)C(=O)NC12CCC(n3cc(-c4ccc(C(=O)Nc5cc(C(F)(F)F)ccn5)cc4)c4c(N)ncnc43)(CC1)C2 [Compound B-6-2, 4-(4-amino-7-(4-(2-hydroxy-2-methylpropanamido)bicyclo[2.2.1]heptan-1-yl)-7H-pyrrolo[2,3-d]pyrimidin-5-yl)-N-(4-(trifluoromethyl)pyridin-2-yl)benzamide] |
| 1 to 10 nM | 1 to 10 nM | CC#CC(=O)NC12CCC(n3cc(-c4ccc(C(=O)Nc5cc(C(F)(F)F)ccn5)cc4)c4c(N)ncnc43)(CC1)C2 [Compound B-6-1, 4-(4-amino-7-(4-(but-2-ynamido)bicyclo[2.2.1]heptan-1-yl)-7H-pyrrolo[2,3-d]pyrimidin-5-yl)-N-(4-(trifluoromethyl)pyridin-2-yl)benzamide] |
| 1 to 10 nM | 1 to 10 nM | Nc1ncnc2c1c(-c1ccc(C(=O)Nc3cc(C(F)(F)F)ccn3)cc1)cn2C12CCC(NC(=O)CN3CCOCC3)(CC1)C2 [Compound B-6-5, 4-(4-amino-7-(4-(2-morpholinoacetamido)bicyclo[2.2.1]heptan-1-yl)-7H-pyrrolo[2,3-d]pyrimidin-5-yl)-N-(4-(trifluoromethyl)pyridin-2-yl)benzamide] |
| 0.1 to 1 nM | 1 to 10 nM | Nc1ncnc2c1n(-c1ccc(C(=O)Nc3cc(C(F)(F)F)ccn3)cc1)c(=O)n2C12CCC(NC(=O)CN3CCOCC3)(CC1)C2 [Compound C-7-2, 4-(6-amino-9-(4-(2-morpholinoacetamido)bicyclo[2.2.1]heptan-1-yl)-8-oxo-8,9-dihydro-7H-purin-7-yl)-N-(4-(trifluoromethyl)pyridin-2-yl)benzamide] |
| 0.1 to 1 nM | 1 to 10 nM | N#CC1(C(=O)NC23CCC(c4nc(-c5ccc(C(=O)Nc6cc(C(F)(F)F)ccn6)cc5)c5c(N)nccn45)(CC2)C3)CCOCC1 [Compound A-10-15, N-(4-(8-amino-1-(4-((4-(trifluoromethyl)pyridin-2-yl)carbamoyl)phenyl)imidazo[1,5-a]pyrazin-3-yl)bicyclo[2.2.1]heptan-1-yl)-4-cyanotetrahydro-2H-pyran-4-carboxamide] |

Source: patent US11420975B2, “Substituted imidazo[1,5-a]pyrazines as Bruton's tyrosine kinase inhibitors” (TRANSTHERA SCIENCES (NANJING), INC., priority 2018, dated 2022)
